Common to all, as to assay type: biochemical
A short description of data set [1]: Substrate spectrum: conversion of methionine and S-alkylhomocysteine derivatives by SAM synthase and variants. The conditions noted are these: for substrate acceptance (which amino acid substrates are converted): in words. An excerpt:
(§1) FIGS. 3A-3E show the rates of conversion of amino acid substrates catalyzed by the SAMS enzyme from Bacillus subtilis (FIG. 3A) and its variants I317V (FIG. 3B), I317A (FIG. 3C), I105V/I317A (FIG. 3D) or I105A/I317A (FIG. 3E) as a function of the substrate concentration. The reaction with L-methionine (open circles), D,L-methionine (closed circles), D,L-methionine-(methyl-D3) (x), D,L-ethionine (hatched circles), S-n-propyl-D,L-homocysteine (open triangles), S-n-butyl-D,L-homocysteine (closed triangles) or S-(2-methylvinyl)-D,L-homocysteine (diamonds) was assessed by spectrophotometric determination of phosphate which is released from the co-substrate ATP during the reaction.
For these studies, a series of S-alkylhomocysteines with linear (D,L-methionine-(methyl-D3), -ethionine, -propionine and -buthionine), branched (D,L-isopropionine and -isobuthionines), unsaturated (D,L-methylvinylhomocysteine) and functionalized (D,L-hydroxyethionine and -carboxymethionine) alkyl groups were synthesized from D,L-homocysteine thiolactone and tested for conversion by the cloned (wildtype) SAM synthase.
As derived from a homology model which is based on the crystal structure of the protein from E. coli (PDB code 1XRA), a hydrophobic cleft formed from two conserved isoleucine residues hinders the generation of cofactor analogues from amino acid substrates with bulky alkyl residues (FIG. 2). Accordingly, both residues were exchanged against less voluminous amino acids by site-directed mutagenesis.
To further probe the role of the proximate isoleucine residue I105 in substrate recognition, the variants I105V/I317A and I105A/I317A were generated. […] Compared to the wild-type enzyme (FIG. 3A), substrate specificity of the variant I105A/I317A (FIG. 3E) is inverted (S-n-propylhomocysteine>S-n-butylhomocysteine>ethionine>>methionine).

A short description of data set [2]: Time course of formation of SAM and SAM derivatives, analyzed by HPTLC. Particulars: racemic amino acid 10 mM, enzyme 10 mU ml^−1; in words. The method, then:
FIGS. 4A-4C show the formation of SAM and SAM derivatives by the SAM synthase enzyme from Bacillus subtilis (FIG. 4A) or its variants I317V (FIG. 4B) and I317A (FIG. 4C). The conversion of the L-enantiomer of methionine (closed circles), ethionine (hatched circles), S-n-propylhomocysteine (open triangles) and S-n-butylhomocysteine (closed triangles) from the corresponding racemic amino acid (10 mM) was performed in the presence of equal amounts of enzyme (10 mU ml^−1). The reactions were analyzed by HPTLC.
The suitability of the wild-type protein and of variants with appropriate substrate specificity (I317V and I317A) for the synthesis of SAM and analogues was evaluated by high-performance thin-layer chromatography. Since the enzymes were not inhibited by the D-enantiomer of the amino acid substrates, methionine and its derivatives could be advantageously applied as racemic mixture of its stereoisomeres in these reactions. […] Accordingly, transformation of methionine and ethionine by SAMS-I317V in preparative synthetic reactions led to high conversion rates for the amino acid substrates. The syntheses were performed similar to the kinetic experiments but in larger scale (200 μmol). After prolonged incubation (18 hours) to reach maximum product yield, 84 and 89% of the L-amino acid was converted. […]

Data set [3] is described as follows: Kinetic parameters for the conversion of S-alkylhomocysteines; standard SAM synthase assay, photometric detection of the cleaved phosphate.
Description: as §1
The kinetic parameters for the conversion of S-alkylhomocysteines by Bacillus subtitlis SAM synthase and its variants as shown in Table 1 were calculated from the conversion rates of methionine and analogues as a function of the substrate concentration […] which were determined by the standard SAM synthase assay known in the art, i.e. by photometric detection of the cleaved phosphate.

Data set [4] is described as follows: Activity of further position 317 SAM synthase variants (Example 4). An excerpt:
The influence of position 317 on catalytic turnover and its crucial role in determination of substrate spectrum was additionally confirmed by introduction of other small- and medium-sized amino acid residues.

The nature of data set [5]: Preparative synthetic reactions (200 μmol): conversion of the L-amino acid. The conditions noted are these: for L-amino acid converted: 18 hours, 200 μmol scale; for conversion: 8 hours. The protocol: The suitability of the wild-type protein and of variants with appropriate substrate specificity (I317V and I317A) for the synthesis of SAM and analogues was evaluated by high-performance thin-layer chromatography. Since the enzymes were not inhibited by the D-enantiomer of the amino acid substrates, methionine and its derivatives could be advantageously applied as racemic mixture of its stereoisomeres in these reactions. […] Accordingly, transformation of methionine and ethionine by SAMS-I317V in preparative synthetic reactions led to high conversion rates for the amino acid substrates. The syntheses were performed similar to the kinetic experiments but in larger scale (200 μmol). After prolonged incubation (18 hours) to reach maximum product yield, 84 and 89% of the L-amino acid was converted. In the production of the n-propyl- and n-butyl analogues of SAM by the variant I317A, 43% and 28% of conversion could be reached after 8 hours of reaction time. After product purification by cation exchange chromatography on SP-Sephadex C-25, SAM and its homologs could be recovered in final yields of 25, 17, 8 and 11%, respectively. As proven by ^1H NMR, the enzymatically produced SAM contained a high excess (≧90%) of the biologically active (S,S)-epimer.

[6] abbreviates: substrate D,L-methionine-(methyl-D3).
Where [7] appears, read: substrate S-n-butyl-D,L-homocysteine.
Where [8] appears, read: substrate S-n-propyl-D,L-homocysteine.
[9] abbreviates: substrate S-(2-methylvinyl)-D,L-homocysteine.

“Also recorded” adds a separate entry of the source.

Take “Wild-type: wildtype Bacillus subtilis S-Adenosylmethionine (SAM) synthase, SEQ ID NO: 1, recombinantly expressed in E. coli BL21 (DE3) [reference compound]”: in data set [1], the “substrate acceptance (which amino acid substrates are converted)” value (shortened to “substrate acceptance”) was “did not accept any of these methionine derivatives”. Besides, the “product inhibition by SAM” value in data set [2] is “inhibited by its product SAM”. In addition, the “inhibition by the D-enantiomer of methionine” value in data set [3] (FIG. 3A, in words) is “not inhibited by the D-enantiomer of methionine”. The S0.5 in data set [3] (substrate D,L-methionine) is recorded as 1.92 ± 0.12 mM; in data set [3] (setting [6]), 1.86 ± 0.07 mM; in data set [3] (substrate L-methionine) it was 1.04 ± 0.14 mM. Besides, the Vmax in data set [3] (substrate D,L-methionine) came to 90.8 ± 1.6 nmol/min/mg; in data set [3] (setting [6]), 79.8 ± 2.3 nmol/min/mg; in data set [3] (substrate L-methionine), 93.2 ± 3.1 nmol/min/mg. Besides, the h in data set [3] (substrate D,L-methionine) is 1.7 ± 0.2; in data set [3] (setting [6]) it was 2.2 ± 0.2; in data set [3] (substrate L-methionine), 1.1 ± 0.1.

For the substance “I317C: Bacillus subtilis SAM synthase with position 317 substituted by cysteine; tolerably active enzyme”, the “activity (conversion)” value in data set [4] (5 mM D,L-buthionine) was found to be 6.0 ± 0.3 nmol/min/mg; in data set [4] (5 mM D,L-ethionine), 16.4 ± 0.7 nmol/min/mg; in data set [4] (5 mM D,L-methionine), 59.4 ± 0.4 nmol/min/mg; in data set [4] (5 mM D,L-propionine), 8.4 ± 0.3 nmol/min/mg.

Consider “I105V/I317A: I105V/I317A SAM synthase variant (SEQ ID NO: 6)”, for which the “substrate acceptance” value in data set [1] is reported as “prefer long-chain substrates”. In addition, the S0.5 in data set [3] (substrate D,L-ethionine) is 4.25 ± 0.20 mM; in data set [3] (substrate D,L-methionine), 3.77 ± 1.02 mM; in data set [3] (setting [7]), 4.20 ± 0.41 mM; in data set [3] (setting [8]) it was 1.86 ± 0.41 mM. Besides, the Vmax in data set [3] (substrate D,L-ethionine) was 5.7 ± 0.3 nmol/min/mg; in data set [3] (substrate D,L-methionine) it was 17.0 ± 2.0 nmol/min/mg; in data set [3] (setting [7]), 11.9 ± 0.9 nmol/min/mg; in data set [3] (setting [8]) it was 17.7 ± 1.5 nmol/min/mg. Besides, the h was 4.6 ± 0.8 in data set [3] (substrate D,L-ethionine), 1.0 ± 0.1 in data set [3] (substrate D,L-methionine), 2.0 ± 0.2 in data set [3] (setting [7]) and 1.0 ± 0.1 in data set [3] (setting [8]).

For “I105A/I317A: I105A/I317A SAM synthase variant (SEQ ID NO: 4)”, the “substrate specificity (rank order)” value in data set [1] (FIG. 3E, compared to wild-type) is given as “S-n-propylhomocysteine>S-n-butylhomocysteine>ethionine>>methionine”. Further, in data set [1], the “substrate acceptance” value is “acceptance of the artificial long-chain substrates only; also recorded: prefer long-chain substrates”. The results for the S0.5 in data set [3] (substrate D,L-ethionine), in data set [3] (setting [7]) and in data set [3] (setting [8]) were 3.91 ± 0.27 mM, “=10.0 mM” and “=10.0 mM”, respectively. The Vmax was 3.0 ± 1.8 nmol/min/mg in data set [3] (substrate D,L-ethionine), 0.8 ± 0.2 nmol/min/mg in data set [3] (substrate D,L-methionine), “=4.0 ± 0.2 nmol min^-1 mg^-1” in data set [3] (setting [7]) and “=10.8 ± 0.1 nmol min^-1 mg^-1” in data set [3] (setting [8]). For the same substance, the h in data set [3] (substrate D,L-ethionine) was 2.9 ± 0.4; in data set [3] (setting [7]), 0.8 ± 0.1; in data set [3] (setting [8]), 1.0 ± 0.1.

As to “I317V: I317V SAM synthase variant (SEQ ID NO: 3) of Bacillus subtilis SAM synthase”, in data set [1], the “substrate acceptance” value is given as “also converts ethionine”. Besides, the L-amino acid converted in data set [5] (ethionine) amounted to 89%; in data set [5] (methionine), 84%. For the same substance, the S0.5 in data set [3] (substrate D,L-ethionine) amounted to 10.94 ± 2.70 mM; in data set [3] (substrate D,L-methionine), 1.71 ± 0.12 mM; in data set [3] (substrate L-methionine), 0.72 ± 0.04 mM. Further, the figures for the Vmax in data set [3] (substrate D,L-ethionine), in data set [3] (substrate D,L-methionine) and in data set [3] (substrate L-methionine) were 51.2 ± 9.1 nmol/min/mg, 446.2 ± 13.8 nmol/min/mg and 408.0 ± 7.7 nmol/min/mg, respectively. Besides, the h in data set [3] (substrate D,L-ethionine) amounted to 1.3 ± 0.1; in data set [3] (substrate D,L-methionine) it was 1.3 ± 0.1; in data set [3] (substrate L-methionine) it was 1.2 ± 0.1.

Consider “I317A: I317A SAM synthase variant (SEQ ID NO: 2) of Bacillus subtilis SAM synthase”, for which the “substrate acceptance” value in data set [1] was “active on ethionine, propionine, buthionine and the unsaturated D,L-methylvinylhomocysteine”. Further, the conversion worked out at 28% in data set [5] (production of n-butyl analogue of SAM) and 43% in data set [5] (production of n-propyl analogue of SAM). Further, the “product inhibition by SAM” value in data set [2] is given as “much less affected by product inhibition; also recorded: less pronounced”. Besides, the S0.5 in data set [3] (substrate D,L-ethionine) is 2.99 ± 0.23 mM; in data set [3] (substrate D,L-methionine), 0.92 ± 0.05 mM; in data set [3] (substrate L-methionine), 0.46 ± 0.02 mM; in data set [3] (setting [9]) it was 0.79 ± 0.04 mM; in data set [3] (setting [7]) it was 3.56 ± 0.45 mM; in data set [3] (setting [8]), 0.90 ± 0.05 mM. The Vmax worked out at 44.1 ± 1.6 nmol/min/mg in data set [3] (substrate D,L-ethionine); 37.7 ± 0.8 nmol/min/mg in data set [3] (substrate D,L-methionine); 34.8 ± 0.5 nmol/min/mg in data set [3] (substrate L-methionine); 22.4 ± 0.4 nmol/min/mg in data set [3] (setting [9]); 35.4 ± 2.6 nmol/min/mg in data set [3] (setting [7]); 34.2 ± 0.7 nmol/min/mg in data set [3] (setting [8]). Further, the h came to 1.2 ± 0.1 in data set [3] (substrate D,L-ethionine); 1.1 ± 0.1 in data set [3] (substrate D,L-methionine); 1.3 ± 0.1 in data set [3] (substrate L-methionine); 1.2 ± 0.1 in data set [3] (setting [9]); 1.4 ± 0.1 in data set [3] (setting [7]); 1.1 ± 0.1 in data set [3] (setting [8]).

Broadly, the Vmax is the top rate of the reaction or transport when substrate is in excess.
